# Experiments:
# [1] = tested on: wistar rats with knee osteoarthritis (ACLT with MMx); test: Von Frey filament mechanical nociceptive threshold test in rat knee OA; format: in vivo
# Procedure: As described in Example 3, OA was induced on one leg of wistar rats while the contralateral knee served as self-control. Thereafter, 14 rats were divided into two experimental groups. 7 were treated by injection of HA to the knee, as a positive control, and 7 were injected with GR. Injection volume was 150 microliters.
# The experimental outcome was assessed using the Von Frey filament method for detection of mechanical nociceptive threshold test.
# galectin-3 = galectin-3 (Homo sapiens, UniProt P17931); settings: reference [8]; cited from earlier work
# Chain of galectin-3 (P17931 whole entry, species assumed): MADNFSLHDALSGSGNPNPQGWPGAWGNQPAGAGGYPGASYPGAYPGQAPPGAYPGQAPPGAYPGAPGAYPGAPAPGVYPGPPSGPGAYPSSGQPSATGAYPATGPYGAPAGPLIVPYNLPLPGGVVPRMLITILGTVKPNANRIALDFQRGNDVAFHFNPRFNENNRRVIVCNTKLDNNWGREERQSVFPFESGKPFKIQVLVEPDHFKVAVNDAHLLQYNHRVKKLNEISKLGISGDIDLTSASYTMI
# [2] = tested on: wistar rats with knee osteoarthritis (ACLT with MMx); test: Weight bearing (incapacitance tester) in rat knee OA induced by ACLT with medial meniscectomy; format: in vivo; settings: 150 microliters into the knee; 20 days post treatment (day 34); *p=0.0012, **p=0.0458; FIG. 2
# Procedure: Induction of knee osteoarthritis was performed by an anterior cruciate ligament transaction (ACLT) with medial meniscectomy (MMx) on one leg of wistar rats while the contralateral knee served as self-control. After the procedure the animals were divided into three experimental groups of 7 animals per group. Control group was treated by injection of 150 microliters of 1% HA into the knee. Experimental groups were treated by injection of 150 microliters of either GR or GR-HA.
# Formulation for dosing of control group was taken from commercial HA-1% viscosupplementation injection (Arthrease 1% sodium hyaluronate Lot R10008G, produced by Bio-Technology General). GR+HA was prepared by Patchor's standard procedures, as described in International Patent Publication No. WO 2009/150651 A1, of mixing HA with GM or with GR. All injections volume was 150 microliters. The positive control HA group was treated immediately post surgery and again at day 14 post surgery, and the HA−CM−GM was treated only once at day 14 post surgery. The experimental outcome was assessed by measuring weight bearing on the OA leg using an incapacitance tester.
substance,measurement,setting,value
Galactoarabino-Rhamnogalacturonan [GR],pain response compared to control HA (Von Frey),"[1]; 150 microliters into OA knee, FIG. 3",significantly reduced pain response
same,nociceptive threshold of OA leg versus control HA,"[1]; 1 day post treatment, p=0.02",significant reduction in nociceptive threshold
same,nociceptive threshold of OA leg versus control HA,"[1]; 19 days post treatment, p=0.007",significant reduction in nociceptive threshold
same,"nociceptive reaction in the healthy legs, GR versus HA group","[1]; healthy contralateral legs, data not shown",No difference in nociceptive reaction
same,inhibition of galectin-3,galectin-3,potent inhibitors of galectin-3
same,weight bearing ability on the operated OA leg compared to HA group,[2],significant increase in weight bearing ability
Galactomannan [GM],inhibition of galectin-3,galectin-3,potent inhibitors of galectin-3

# From patent publication US20210100832A1, “INJECTABLE COMPOSITION FOR THE TREATMENT OF MUSCULOSKELETAL DISORDERS AND METHODS OF USE THEREOF” (Patchor Ltd., priority 2019, published 2021)
